Experiments:
[1] = Thermal stability of benzamil in solution (UPLC MS); type: physicochemical; conditions: ethanol, ~0.5 mg/mL, 1 h
Protocol: The thermal stability of benzamil was evaluated in three solvent systems: acetonitrile:water 1:1, ethanol, and 0.1 M HCl. Solutions of benzamil (˜0.5 mg/mL) were prepared in the selected solvents and split over 3 vials. The solutions were stirred at room temperature, 50° C. and 80° C. for one hour and then analyzed by UPLC MS. The chemical purity of benzamil measured in the solutions incubated at 50° C. and 80° C. for 1 h was compared to that measured initially in the starting solutions.

[2] = Qualitative solubility of benzamil free base in solvents (aliquot addition); type: physicochemical
[3] = Polymorphism: solid forms found in salt screen by HT-XRPD; type: physicochemical; conditions: Example 1 salt screen in MeOH, DME, THF
Protocol: The precipitated solids were analyzed by high throughput X-ray powder diffractometry (HT XRPD). Liquid phases (both solutions and mother liquors) were evaporated at ambient conditions and the residual solids were analyzed by HT XRPD.
The salt screen experiments were carried out in methanol (MeOH), 1,2-dimethoxyethane (DME) and tetrahydrofuran (THF).

[4] = physchem
Protocol: The aqueous solubility of the salts was estimated qualitatively by the solvent aliquot addition method. Aliquots of water up to 500-600 μL were added to approximately 5 mg of salt. The solubility of the free base was also estimated.
The suspensions were let equilibrating at room temperature for 24 h. Afterwards, solids were separated from the liquid phases. The liquid phases were filtered and analyzed by HPLC to determine the solubility. The pH of solutions/mother liquors was also measured.
Suspensions of the two salts were prepared in water with a concentration of 9-10 mg/mL. The mixtures were let equilibrating at RT for 24 h. Afterwards, solids were separated from the liquid phases. The liquid phases were filtered and analyzed by HPLC to determine the solubility. The pH of mother liquors was also measured.

## NC(=NCc1ccccc1)NC(=O)c1nc(Cl)c(N)nc1N [Benzamil free base, 3,5-diamino-N—(N′-benzylcarbamimidoyl)-6-chloropyrazine-2-carboxamide]
[1]; 50° C.
  chemical stability in solution: stable
[1]; 80° C.
  chemical stability in solution: some chemical degradation was observed
[2]; 1,2-dimethoxyethane
  qualitative solubility: slightly soluble
[2]; THF suspension, 50° C. for 30 min
  effect of temperature on solubility: slightly improved the solubility
[2]; methanol
  qualitative solubility: slightly soluble
[2]; most of the tested solvents (ethanol, water, 1,4-dioxane, acetonitrile, TBME, heptane, ethylacetate, THF), approximately 3 mg/mL
  qualitative solubility: insoluble
[3]
  Polymorphism: Yes
[4]
  Water solubility: practically insoluble
[4]; water, thermodynamic from solid
  solubility at 24 h: < 100 µg/mL

From patent US20250002463A1, “NEW SALT FORMS OF AMILORIDE AND ITS DERIVATIVES FOR PHARMACEUTICAL USE” (PSOMRI Holding AB, priority 2021, published 2025)
